# Laboratory results reported in patent US9181303B2, “Treatment of bacterial infections with cyclic antimicrobial peptides” (N[…], priority 2005, dated 2015).
# Several values for one entry are separate records, joined by “and”; a condition that tells them apart may be missing. Equal entries are not always repeated.
# How the values were obtained:
# T. rubrum = assay: Broth dilution antifungal susceptibility testing (CLSI M38-P), T. rubrum; type: cell-based, Trichophyton rubrum; conditions: for MIC versus T. rubrum: T. rubrum cultures
# Method: (§1) Broth Dilution Antifungal Susceptibility Testing
# (§2) The sensitivity of relevant fungal strains to the cyclized peptides was determined using Clinical Laboratory Standard Institute (CLSI; formerly NCCLS) Approved Standards. Fungal susceptibility was tested using “Reference Method for Broth Dilution Antifungal Susceptibility Testing of Filamentous Fungi; Approved Standard M38-P”, and yeast susceptibility was tested using “Reference Method for Broth Dilution Antifungal Susceptibility Testing of Yeasts; Approved Standard—Second Edition M27-A”.
# T. rubrum susceptibility to peptides 1-8 was tested.
# T. interdigitale = assay: Broth dilution antifungal susceptibility testing, T. interdigitale; type: cell-based, Trichophyton interdigitale; conditions: for Activity towards T. interdigitale: in words
# Method: as §1, §2
# T. interdigitale susceptibility to peptides 2-8 was tested. Peptides 2, 4 and 6 were active towards T. interdigitale.
# C. neoformans = assay: Broth dilution antifungal susceptibility testing of yeasts (M27-A), C. neoformans; type: cell-based, Cryptococcus neoformans
# Method: as §1, §2
# C. neoformans susceptibility to peptides 4 and 6-8 was tested using “Reference Method for Broth Dilution Antifungal Susceptibility Testing of Yeasts; Approved Standard—Second Edition M27-A”.
# E. coli = assay: Broth dilution antibacterial susceptibility testing (CLSI M7-A7), E. coli; type: cell-based; conditions: for MIC versus E. coli: growth over 16 hours at 37° C.
# Method: (§3) Broth Dilution Antibacterial Susceptibility Testing
# (§4) The sensitivity of relevant bacterial strains to the cyclized peptides was determined using Clinical Laboratory Standard Institute (CLSI; formerly NCCLS) Approved Standards. Bacterial susceptibility was tested using “Methods for Dilution Antimicrobial Susceptibility Tests for Bacteria That Grow […]; Approved Standard—Seventh Edition M7-A7”
# (§5) Cultures of E. coli and Staphylococcus aureus were exposed to Peptide 1 and the MIC after growth over the following 16 hours at 37° C. was 1 mM for both organisms (Table 2).
# S. aureus = assay: Broth dilution antibacterial susceptibility testing (CLSI M7-A7), S. aureus; type: cell-based, Staphylococcus aureus
# Method: as §3, §4, §5
# T. mentagrophytes = assay: Broth dilution antifungal susceptibility testing, T. mentagrophytes; type: cell-based, Trichophyton mentagrophytes
# Method: as §1, §2
# M. furfur = assay: Broth dilution antifungal susceptibility testing, M. furfur; type: cell-based, Malassezia furfur; conditions: M. furfur DSM6170
# Method: as §1, §2
# S. brevicaulis = assay: Broth dilution antifungal susceptibility testing, S. brevicaulis; type: cell-based, Scopulariopsis brevicaulis
# Method: as §1, §2
# A. niger = assay: Broth dilution antifungal susceptibility testing, A. niger; type: cell-based; conditions: A. niger NCPF2022
# Method: as §1, §2
# A. terreus = assay: Broth dilution antifungal susceptibility testing, A. terreus; type: cell-based; conditions: A. terreus NCPF2729
# Method: as §1, §2
# Fusarium oxysporum = assay: Broth dilution antifungal susceptibility testing, Fusarium oxysporum; type: cell-based; conditions: Fusarium oxysporum NCPF2722
# Method: as §1, §2
# Fusarium spp = assay: Broth dilution antifungal susceptibility testing, Fusarium spp; type: cell-based
# Method: as §1, §2
# C. albicans = assay: Broth dilution antifungal susceptibility testing of yeasts, C. albicans; type: cell-based
# Method: as §1, §2
# C. krusei = assay: Broth dilution antifungal susceptibility testing of yeasts, C. krusei; type: cell-based
# Method: as §1, §2
# C. parapsilosis = assay: Broth dilution antifungal susceptibility testing of yeasts, C. parapsilosis; type: cell-based
# Method: as §1, §2
# Ps. aeruginosa = assay: Broth dilution antibacterial susceptibility testing, Ps. aeruginosa; type: cell-based
# Method: as §3, §4
# B. cepacia = assay: Broth dilution antibacterial susceptibility testing, B. cepacia; type: cell-based, Burkholderia cepacia; conditions: B. cepacia ATCC25609
# Method: as §3, §4
# P. acnes = assay: Broth dilution antibacterial susceptibility testing, P. acnes; type: cell-based; conditions: P. acnes DSMZ1897
# Method: as §3, §4
# S. epidermidis = assay: Broth dilution antibacterial susceptibility testing, S. epidermidis; type: cell-based, Staphylococcus epidermidis; conditions: S. epidermidis ATCC12228
# Method: as §3, §4
# C. difficile = assay: Broth dilution antibacterial susceptibility testing, C. difficile; type: cell-based, Clostridium difficile; conditions: C. difficile NCTC11209
# Method: as §3, §4
substance,measurement,setting,value
Cyclic-DK-DK-DK-DK-DK-DK-DK-G [Peptide 8],MIC versus T. rubrum,T. rubrum,> 4000 µM
same,MIC versus T. interdigitale,T. interdigitale,>4000 µM
same,MIC versus C. neoformans,C. neoformans,500 µM
Cyclic-O-O-O-O-O-O-O-G [Peptide 5],MIC versus T. rubrum,T. rubrum,4000 µM
same,MIC versus T. interdigitale,T. interdigitale,>4000 µM
Cyclic-R-R-R-R-R-R-R [Peptide 2],MIC,T. rubrum; T. rubrum 7 Clinical Isolates,500 to 1000 µM
same,MIC,T. rubrum; T. rubrum NCPF118,250 µM
same,MIC versus T. rubrum,T. rubrum,250 µM and 200 µM
same,MIC versus T. interdigitale,T. interdigitale,<125 µM
same,MIC,T. interdigitale; T. interdigitale NCPF335,<125 µM
same,Activity towards T. interdigitale,T. interdigitale,active
same,MIC,E. coli; E. coli NCTC12900,100 µM
same,MIC,"E. coli; E. coli, No strain designation",100 µM
same,MIC versus E. coli,E. coli,100 µM
same,MIC,S. aureus; S. aureus 16 Clinical Isolates,>3800 µM
same,MIC,"S. aureus; S. aureus ANS46, MRSA",950 µM
same,MIC,S. aureus; S. aureus ATCC12598,950 µM
same,MIC,S. aureus; S. aureus ATCC25923,>100 µM
same,MIC,"S. aureus; S. aureus Col, MRSA",950 µM
same,MIC,"S. aureus; S. aureus MW2, MRSA",950 µM
same,MIC,"S. aureus; S. aureus N315, MRSA",950 µM
same,MIC,"S. aureus; S. aureus NCTC6571, MSSA",>1900 µM
same,MIC,S. aureus; S. aureus NCTC8325,>1900 µM
same,MIC,"S. aureus; S. aureus NCTC10442, MRSA",250 µM
same,MIC,S. aureus; S. aureus NCTC10788,>1900 µM
same,MIC,"S. aureus; S. aureus, No strain designation",250 µM
same,MIC,T. mentagrophytes; T. mentagrophytes DM2006 978,500 µM
same,MIC,T. mentagrophytes; T. mentagrophytes DM2006 1023,500 µM
same,MIC,M. furfur,0.031 mM
same,MIC,S. brevicaulis; S. brevicaulis DM2006 1025,500 µM
same,MIC,S. brevicaulis; S. brevicaulis NCPF2177,500 µM
same,MIC,A. niger,500 µM
same,MIC,A. terreus,>2000 µM
same,MIC,Fusarium oxysporum,>2000 µM
same,MIC,Fusarium spp; Fusarium spp DM2006 294,>2000 µM
same,MIC,Fusarium spp; Fusarium spp DM2006 495,>2000 µM
same,MIC,Fusarium spp; Fusarium spp DM2006 1026,>2000 µM
same,MIC,C. albicans; C. albicans AM2003-020,>2000 µM
same,MIC,C. albicans; C. albicans ATCC24433,>2000 µM
same,MIC,C. albicans; C. albicans ATCC90028,>2000 µM
same,MIC,C. albicans; C. albicans IHEM3742,>2000 µM
same,MIC,C. albicans; C. albicans NCTC3179,>2000 µM
same,MIC,C. albicans; C. albicans s20122.073,>2000 µM
same,MIC,C. krusei; C. krusei ATCC6258,125 µM
same,MIC,C. krusei; C. krusei NCPT3953,128 to 256 µM
same,MIC,C. parapsilosis; C. parapsilosis ATCC22019,250 µM
same,MIC,C. parapsilosis; C. parapsilosis ATCC90018,1000 µM
same,MIC,"Ps. aeruginosa; Ps. aeruginosa ATCC27853 (first entry, r42)",>1900 µM
same,MIC,"Ps. aeruginosa; Ps. aeruginosa ATCC27853 (second entry, r44)",>2000 µM
same,MIC,Ps. aeruginosa; Ps. aeruginosa DSM50071,>2000 µM
same,MIC,B. cepacia,>1900 µM
same,MIC,P. acnes,125 µM
same,MIC,S. epidermidis,25 µM
same,MIC,C. difficile,>2000 µM
Cyclic-DO-DO-DO-DO-DO-DO-DO-G [Peptide 7],MIC versus T. rubrum,T. rubrum,>4000 µM
same,MIC versus T. interdigitale,T. interdigitale,>4000 µM
same,MIC versus C. neoformans,C. neoformans,2000 µM
Cyclic-K-K-K-K-K-K-K [Peptide 1],MIC versus T. rubrum,T. rubrum,100 µM
same,MIC versus E. coli,E. coli,1000 µM
same,MIC versus S. aureus,S. aureus; growth over 16 hours at 37° C.,1000 µM
Cyclic-R-R-R-R-R-R-R-G [Peptide 4],MIC versus T. rubrum,T. rubrum,2000 µM
same,MIC versus T. interdigitale,T. interdigitale,500 µM
same,Activity towards T. interdigitale,T. interdigitale,active
same,MIC versus C. neoformans,C. neoformans,1000 µM
Cyclic-K-K-K-K-K-K-K-G [Peptide 3],MIC versus T. rubrum,T. rubrum,4000 µM
same,MIC versus T. interdigitale,T. interdigitale,>4000 µM
Cyclic-DR-DR-DR-DR-DR-DR-DR-G [Peptide 6],MIC versus T. rubrum,T. rubrum,1000 µM
same,MIC versus T. interdigitale,T. interdigitale,250 µM
same,Activity towards T. interdigitale,T. interdigitale,active
same,MIC versus C. neoformans,C. neoformans,500 µM
